Results published in paper PMC6267221, “Renal Cell Carcinoma Is Abrogated by p53 Stabilization through Transglutaminase 2 Inhibition” (Cancers, 2018).

Experiments:
[1] = target: T1, transglutaminase 2 (TGase 2) (Homo sapiens, UniProt P21980); test: SPR (ProteOn XPR36); MS peptide masking supports the site; assay type: binding
T1 construct: gene TGM2; recombinant human TGase 2, polyhistidine-tagged
T1 sequence (P21980 2-687): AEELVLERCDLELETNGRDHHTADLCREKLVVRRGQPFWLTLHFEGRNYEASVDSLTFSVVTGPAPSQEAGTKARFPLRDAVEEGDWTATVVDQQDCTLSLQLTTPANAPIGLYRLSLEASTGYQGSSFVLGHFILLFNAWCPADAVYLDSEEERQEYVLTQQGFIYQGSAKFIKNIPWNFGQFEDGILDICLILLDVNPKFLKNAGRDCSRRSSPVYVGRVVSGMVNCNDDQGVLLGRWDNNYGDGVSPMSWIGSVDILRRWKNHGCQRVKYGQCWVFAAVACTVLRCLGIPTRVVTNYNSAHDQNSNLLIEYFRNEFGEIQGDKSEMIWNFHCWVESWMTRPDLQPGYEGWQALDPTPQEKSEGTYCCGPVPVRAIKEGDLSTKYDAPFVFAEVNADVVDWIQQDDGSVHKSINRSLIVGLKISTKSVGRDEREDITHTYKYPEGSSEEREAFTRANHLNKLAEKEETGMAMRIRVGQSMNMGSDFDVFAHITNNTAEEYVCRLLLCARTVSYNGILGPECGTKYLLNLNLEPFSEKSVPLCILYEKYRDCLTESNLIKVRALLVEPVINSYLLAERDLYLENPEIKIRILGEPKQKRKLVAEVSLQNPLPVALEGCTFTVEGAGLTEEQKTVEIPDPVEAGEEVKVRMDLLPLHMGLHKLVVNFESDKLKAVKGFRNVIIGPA

guinea pig liver TGase 2 = target: T2, guinea pig liver TGase 2 (UniProt P08587); test: succinylated casein / […]-putrescine incorporation assay; assay type: biochemical, Cavia cutleri
T2 construct: gene TGM2
T2 sequence (P08587 2-690): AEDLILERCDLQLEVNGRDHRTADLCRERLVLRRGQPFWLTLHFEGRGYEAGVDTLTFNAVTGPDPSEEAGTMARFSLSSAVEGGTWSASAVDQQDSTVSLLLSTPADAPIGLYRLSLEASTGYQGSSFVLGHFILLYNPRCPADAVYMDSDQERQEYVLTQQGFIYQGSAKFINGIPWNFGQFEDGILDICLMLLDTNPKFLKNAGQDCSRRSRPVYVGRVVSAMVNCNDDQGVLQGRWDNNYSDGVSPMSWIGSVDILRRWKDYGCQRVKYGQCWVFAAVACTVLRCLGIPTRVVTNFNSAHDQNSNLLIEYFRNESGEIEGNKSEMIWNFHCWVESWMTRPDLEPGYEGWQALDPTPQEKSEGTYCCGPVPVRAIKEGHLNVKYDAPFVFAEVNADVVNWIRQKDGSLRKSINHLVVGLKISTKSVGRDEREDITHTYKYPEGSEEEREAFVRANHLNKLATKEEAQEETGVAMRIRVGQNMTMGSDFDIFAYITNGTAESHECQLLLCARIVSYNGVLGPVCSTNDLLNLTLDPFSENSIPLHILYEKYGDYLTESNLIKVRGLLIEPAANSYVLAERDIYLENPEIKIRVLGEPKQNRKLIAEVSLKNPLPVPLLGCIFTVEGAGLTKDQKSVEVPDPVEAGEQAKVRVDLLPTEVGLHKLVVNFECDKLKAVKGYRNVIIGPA

[2] = target: T3, TGase 2 (as run on native gels), P21980; test: native gel or EMSA; TGase 2 incubated with streptonigrin or GTP, 37 °C; native gel, immunoblot of TGase 2; monomer to dimer; conditions: remark: other sources report otherwise
T3 chain: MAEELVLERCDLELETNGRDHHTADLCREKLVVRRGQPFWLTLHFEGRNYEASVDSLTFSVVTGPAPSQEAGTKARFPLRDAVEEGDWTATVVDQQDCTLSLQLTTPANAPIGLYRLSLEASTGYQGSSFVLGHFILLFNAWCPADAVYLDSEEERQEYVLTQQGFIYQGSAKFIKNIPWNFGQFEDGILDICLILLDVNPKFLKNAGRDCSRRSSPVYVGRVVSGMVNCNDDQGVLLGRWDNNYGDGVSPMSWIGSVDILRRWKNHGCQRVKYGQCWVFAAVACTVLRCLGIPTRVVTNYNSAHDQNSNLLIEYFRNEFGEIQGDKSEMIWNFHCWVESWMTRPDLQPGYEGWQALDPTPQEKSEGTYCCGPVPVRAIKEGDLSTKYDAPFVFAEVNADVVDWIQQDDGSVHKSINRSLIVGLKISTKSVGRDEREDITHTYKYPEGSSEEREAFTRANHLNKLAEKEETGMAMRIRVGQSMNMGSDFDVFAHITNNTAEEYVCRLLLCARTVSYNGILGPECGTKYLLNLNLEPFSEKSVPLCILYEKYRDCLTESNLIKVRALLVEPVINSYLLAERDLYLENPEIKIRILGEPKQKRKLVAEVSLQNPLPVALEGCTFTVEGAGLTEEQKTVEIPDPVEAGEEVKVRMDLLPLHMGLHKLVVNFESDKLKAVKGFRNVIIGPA

Row | Molecule | Kd [1] [µM] | IC50 (guinea pig liver TGase 2) [µM] | fold increase in the density of the dimer band after streptonigrin treatment [2] [fold] | stoichiometry N [2]
1 | COC1=C(N)C(=O)c2nc(-c3nc(C(=O)O)c(C)c(-c4ccc(OC)c(OC)c4O)c3N)ccc2C1=O [streptonigrin] | ~0.7 | 1.7 |  | 
2 | TGase 2 (as run on native gels), P21980 1-687 (enzyme) MAEELVLERCDLELETNGRDHHTADLCREKLVVRRGQPFWLTLHFEGRNYEASVDSLTFSVVTGPAPSQEAGTKARFPLRDAVEEGDWTATVVDQQDCTLSLQLTTPANAPIGLYRLSLEASTGYQGSSFVLGHFILLFNAWCPADAVYLDSEEERQEYVLTQQGFIYQGSAKFIKNIPWNFGQFEDGILDICLILLDVNPKFLKNAGRDCSRRSSPVYVGRVVSGMVNCNDDQGVLLGRWDNNYGDGVSPMSWIGSVDILRRWKNHGCQRVKYGQCWVFAAVACTVLRCLGIPTRVVTNYNSAHDQNSNLLIEYFRNEFGEIQGDKSEMIWNFHCWVESWMTRPDLQPGYEGWQALDPTPQEKSEGTYCCGPVPVRAIKEGDLSTKYDAPFVFAEVNADVVDWIQQDDGSVHKSINRSLIVGLKISTKSVGRDEREDITHTYKYPEGSSEEREAFTRANHLNKLAEKEETGMAMRIRVGQSMNMGSDFDVFAHITNNTAEEYVCRLLLCARTVSYNGILGPECGTKYLLNLNLEPFSEKSVPLCILYEKYRDCLTESNLIKVRALLVEPVINSYLLAERDLYLENPEIKIRILGEPKQKRKLVAEVSLQNPLPVALEGCTFTVEGAGLTEEQKTVEIPDPVEAGEEVKVRMDLLPLHMGLHKLVVNFESDKLKAVKGFRNVIIGPA |  |  | 2.4 | 2
